Results: patent US9192678B2, “Modified hyaluronic acid polymer compositions and related methods” (priority 2009, dated 2015)

Tested on: medial femoral condyle cartilage of goat stifle joint
Assay: Modified Mankin score of femoral cartilage after intra-articular injection in goats (Example 34)
Format: in vivo
Description: A lightly crosslinked hydrogel prepared by reaction of vinyl-sulfone-modified hyaluronic acid with PEG-dithiol (HA-VS-PEG-(SH)2), containing the corticosteroid, triamcinolone acetonide, was injected into the intraarticular space of the stifle joint of female goats. Morphological, synovial fluid and histological examinations were conducted to evaluate local and systemic effects of such injections. Details of the study are provided below.
All test materials were stored at room temperature prior to use. For each Test or Control Material, a 1.5 ml dosage was prepared for each individual intra-articular injection.
A standard technique was used to inject each stifle joint, A 2-inch by 21 gauge sized sterile needle was introduced into the intra-articular space via an anteromedial approach. The lateral intercondylar notch wall of the medial femoral condyle was felt and the needle backed slightly off. 1.5 ml of the appropriate Test Material was injected into the right joint. The injection needle was removed and pressure was maintained on the injection site. The injected stifle joint was then cycled 20-times through a full range of motion. Immediately following this, the left stifle joint was cleansed with chlorohexidine scrub alternating with 70% isopropyl alcohol three times and painted with iodine solution and 1.5 ml of the Control Material was injected into the left stifle joint in a similar manner as described above for the right stifle. The injection needle was removed and pressure maintained on the injection site. The injected stifle joint was then cycled 20-times through a full range of motion.
Necropsy: Animals were humanely sacrificed at either 14 days or 28 days day post initial injection with an intravenous injection consisting of Diazepam 0.22 mg/kg and Ketamine 10 mg/kg for induction of general anesthesia. Following this, the anesthetized animals were given an IV overdose of concentrated potassium chloride (KCl) until the cardiac arrest had been verified.
Immediately after dissection and following gross joint surface evaluation a sagital section of each joint was cut through the medial femoral condyle (MFC). These sections were placed individually in 10% neutral buffered formalin. The fixed tissue was shipped by overnight carrier to Premier Laboratories for processing. The right and left MFC sections were processed using standard histological techniques and stained with hematoxylin and eosin (H&E) and Safranin-O (SAF-O) with a fast green counter stain. The slides from the MFC sections were evaluated by the Mankin Scoring System for osteoarthritis as described in Table 12.

[1] = 28 day group, animal died prematurely (3837: 24 days, 3588: 19 days on study), not included in averages

| SMILES | Cells (modified Mankin) [1] | Safranin-O Stain (modified Mankin) [1] | Structure (modified Mankin) [1] | Tide Mark Integrity (modified Mankin) [1] | Total Mankin Score [1] | Cells (modified Mankin), MEAN (female, goat, in vivo, 14 days) | Safranin-O Stain (modified Mankin), MEAN (female, goat, in vivo, 14 days) | Structure (modified Mankin), MEAN (female, goat, in vivo, 14 days) | Tide Mark Integrity (modified Mankin) (female, goat, in vivo, 14 days) | Tide Mark Integrity (modified Mankin), MEAN (female, goat, in vivo, 14 days) | Total Mankin Score, MEAN (female, goat, in vivo, 14 days) | Cells (modified Mankin), MEAN (female, goat, in vivo, 28 days) | Safranin-O Stain (modified Mankin) (female, goat, in vivo, 28 days) | Safranin-O Stain (modified Mankin), MEAN (female, goat, in vivo, 28 days) | Structure (modified Mankin), MEAN (female, goat, in vivo, 28 days) | Tide Mark Integrity (modified Mankin) (female, goat, in vivo, 28 days) | Tide Mark Integrity (modified Mankin), MEAN (female, goat, in vivo, 28 days) | Total Mankin Score, MEAN (female, goat, in vivo, 28 days) |
| --- | --- | --- | --- | --- | --- | --- | --- | --- | --- | --- | --- | --- | --- | --- | --- | --- | --- | --- |
| CC1(C)O[C@@H]2C[C@H]3[C@@H]4CCC5=CC(=O)C=C[C@]5(C)[C@@]4(F)[C@@H](O)C[C@]3(C)[C@]2(C(=O)CO)O1 [Triamcinolone Acetonide 8 mg/ml, triamcinolone acetonide] | 3.0 | 3.0 | 4.0 | 0.0 | 10.0 | 0.3 | 3.3 | 1.7 | 0.0 | 0.0 | 5.3 | 2.0 | 4.0 | 4.0 | 3.0 | 0.0 | 0.0 | 9.0 |
| CC1(C)O[C@@H]2C[C@H]3[C@@H]4CCC5=CC(=O)C=C[C@]5(C)[C@@]4(F)[C@@H](O)C[C@]3(C)[C@]2(C(=O)CO)O1 [Triamcinolone Acetonide 2 mg/ml, triamcinolone acetonide] | – | – | – | – | – | 0.7 | 3.0 | 2.7 | 0.0 | 0.0 | 6.3 | 2.3 | – | 3.3 | 2.7 | 0.0 | 0.0 | 8.3 |
